IC50 and inhibition data for 64 molecules are collected here from PubChem BioAssay AID463181 (University of Pittsburgh Molecular Library Screening Center, 2010).

Assay [1] has as its system L929 zVAD necroptosis rescue, ATP luminescence, 24 h. The assay can be described thus: L929 protection from caspase-blocker death, IC50 – L929 cells, duplicate IC50, dose response (AID 463181).
Test in assay [2]: as above
The conditions noted are these: L929 zVAD necroptosis rescue, ATP luminescence, 24 h; inhibition of cell death; at 50 µM; stronger effect = higher value.

Inconclusive results are not listed. Activity calls are given as the source filed them.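 The calls were made as follows: active = compounds with IC50 under 50 µM in each of two repeat runs and on average; inconclusive = just one of the two runs above 50 µM; inactive = both runs and average above 50 µM.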 Some results are limits rather than exact numbers.

In the case of `CC(=O)Nc1ccc(/C=N/Nc2nc3ccccc3s2)cc1`, the IC50 in assay [1] was 18.8 µM. Also, the inhibition in assay [2] turned out to be 70.2%.

For `Cc1ccc(/C=N\Nc2nc3ccc(Cl)cc3[nH]2)o1`, the IC50 in assay [1] was > 20 µM (inactive). For the same molecule, in assay [2], the inhibition amounted to 0.613%.

As for `Cc1cnc(NC(=O)c2ccc(OCC3CCCO3)cc2)s1` (stereo not drawn), the IC50 in assay [1] is 8.49 µM. Further, in assay [2], the inhibition was 74.2%.

Regarding `Brc1ccc(COn2ccnc2)cc1`, in assay [1], the IC50 is 16.8 µM. The inhibition in assay [2] was 79.8%.

As for `Cn1c(N)c(C(=O)N/N=C/c2ccccc2)sc1=S`, in assay [1], the IC50 was 17.3 µM. In addition, in assay [2], the inhibition is 76.3%.

For the molecule `O=C1Nc2ccccc2/C1=C/c1cnc[nH]1`, the IC50 in assay [1] is 9.67 µM. Moreover, the inhibition in assay [2] is 85.9%.

Turning to `O=C(/C=C/c1cccc(F)c1)Nc1nccs1`, the IC50 in assay [1] is > 20 µM (inactive). The inhibition in assay [2] turned out to be 1.43%.

Take `Cc1cnc(NC(=O)c2cc3c(s2)CCCC3)s1`: in assay [1], the IC50 is > 20 µM (inactive). Besides, in assay [2], the inhibition was 10.4%.

For the molecule `C=C1C(=O)[C@@]23[C@H](O)C[C@@H]4C(C)(C)CC[C@H](O)[C@@]4(C)[C@@H]2CC[C@@H]1[C@H]3O`, in assay [1], the IC50 is 10.1 µM. The inhibition in assay [2] was found to be 144%.

On to `COc1ccc(/C=C2\N=C(SC)NC2=O)cc1`, for which, in assay [1], the IC50 is 5.22 µM. Besides, in assay [2], the inhibition amounted to 80.6%.

Regarding `Clc1ccc(COn2ccnc2)cc1Cl`, the IC50 in assay [1] was 10.9 µM. Further, the inhibition in assay [2] is 82.6%.

Take `Cc1ccc2[nH]c3c(c2c1)CCc1cn[nH]c1-3`: in assay [1], the IC50 is 1.29 µM. Further, the inhibition in assay [2] was 82.2%.

With `O=C(Nc1nccs1)c1ccc(CSc2nnnn2-c2ccccc2)cc1`, in assay [1], the IC50 was > 20 µM (inactive). Moreover, the inhibition in assay [2] worked out at 0.93%.

`O=C(CSc1nnc(NC2CCCCC2)s1)Nc1ccc2c(c1)C(=O)c1ccccc1C2=O`: in assay [1], the IC50 was > 20 µM (inactive). For the same molecule, the inhibition in assay [2] stood at 0.754%.

As to `CC(=O)Nc1ccc(Sc2ncccc2C(=O)Nc2ccc(OC(F)(F)F)cc2)cn1`, in assay [1], the IC50 was > 20 µM (inactive). Also, the inhibition in assay [2] amounted to 5.08%.

Turning to `COc1ccc(-n2cnnc2SCC(=O)Nc2cc(C(C)(C)C)nn2-c2ccccc2)cc1`, the IC50 in assay [1] was 4.77 µM. Besides, the inhibition in assay [2] was 70%.

For `COc1ccc(/C=N/Nc2ccccn2)cc1OC`, in assay [1], the IC50 is 16.3 µM. Besides, the inhibition in assay [2] amounted to 80.7%.

For `COc1cc(NC(=O)c2cnc(N)s2)cc(C(=O)Nc2cccc(C(F)(F)F)c2)c1`, in assay [1], the IC50 was 17.4 µM. In addition, the inhibition in assay [2] turned out to be 75.8%.

For `O=C1C=CC(O)(c2cc(=O)c3c(O)cc(O)cc3o2)C=C1`, the IC50 in assay [1] is 10.1 µM. Moreover, in assay [2], the inhibition came to 78.5%.

Consider `COC(=O)c1ccn(Cc2ccccc2Cl)n1`, for which, in assay [1], the IC50 was 16.3 µM. For the same molecule, the inhibition in assay [2] came out at 81.2%.

In the case of `CN(CC1CCCO1)S(=O)(=O)c1ccc(C(=O)Nc2nccs2)cc1` (stereo not drawn), the IC50 in assay [1] was 7.39 µM. Moreover, the inhibition in assay [2] was 97.5%.

`Cn1nc(C(C)(C)C)cc1NC(=O)Nc1cc(Cl)cc(Cl)c1`: the IC50 in assay [1] is > 20 µM (inactive). Also, in assay [2], the inhibition amounted to 2.91%.

With `CCN(CC)CCn1c2ccccc2c2cnc(N)c(C#N)c21`, the IC50 in assay [1] is 17.7 µM. The inhibition in assay [2] is 68.7%.

Regarding `CCCc1cc(C(=O)Nc2nccs2)cs1`, the IC50 in assay [1] is 9.59 µM. The inhibition in assay [2] came out at 76.6%.

Take `CCN1CCN(Cc2ccc(NC(=O)c3ccc(C)c(NC(=O)c4nccnc4N)c3)cc2C(F)(F)F)CC1`: in assay [1], the IC50 is 1.46 µM. Besides, the inhibition in assay [2] came out at 74%.

For the molecule `COc1cc(N=Cc2c(O)[nH]c3ccccc23)cc(OC)c1OC`, in assay [1], the IC50 is 7.09 µM. Also, the inhibition in assay [2] was 89.1%.

Regarding `Cc1noc(C)c1/C=N/Nc1ccccn1`, the IC50 in assay [1] is 16.9 µM. Besides, the inhibition in assay [2] is 81.6%.

With `COc1cc(/C=N/Nc2nc3ccccc3s2)ccc1OC(=O)c1ccccc1F`, in assay [1], the IC50 was > 20 µM (inactive). Further, in assay [2], the inhibition was determined as 1.24%.

For the molecule `Oc1ccc(/C=N/Nc2ccc(C(F)(F)F)cn2)cc1O`, in assay [1], the IC50 was 4.19 µM. The inhibition in assay [2] was determined as 87.6%.

Regarding `O=C(OCn1ncc(Br)c(Br)c1=O)c1ccc(F)cc1`, in assay [1], the IC50 was > 20 µM (inactive). Besides, the inhibition in assay [2] stood at 8.06%.

Turning to `CC(=O)OC[C@]12CCC(C)=C[C@H]1O[C@@H]1[C@H](O)[C@@H](OC(C)=O)[C@@]2(C)[C@]12CO2`, the IC50 in assay [1] was under 0.039 µM. In assay [2], the inhibition turned out to be 114%.

Turning to `Cc1ccc(C(=O)Nc2cccc(C(F)(F)F)c2)cc1Nc1cnccn1`, the IC50 in assay [1] is 10.8 µM. The inhibition in assay [2] was 74.3%.

Turning to `O=C(Nc1cccc(Cl)c1)N1N=CCC1c1ccccc1` (stereo not drawn), the IC50 in assay [1] was 16.9 µM. Moreover, in assay [2], the inhibition came to 81.4%.

As to `CCN1CCN(Cc2ccc(NC(=O)c3cc(NC(=O)c4cnn(-c5ccccc5)c4N)cc(OC)c3)cc2C(F)(F)F)CC1`, in assay [1], the IC50 is 9.96 µM. Also, in assay [2], the inhibition was 80.3%.

Consider `Clc1ccc2[nH]c3c(c2c1)CCc1cn[nH]c1-3`, for which the IC50 in assay [1] was 2.63 µM. Besides, the inhibition in assay [2] stood at 103%.

Turning to `Cc1ccc2c(c1)C(C)CC(C)(C)N2C(=O)NC1CCCCC1` (stereo not drawn), in assay [1], the IC50 was > 20 µM (inactive). The inhibition in assay [2] is 1.73%.

In the case of `CCN(CC)Cc1cc2[nH]c3c4ccc(Cl)cc4ncc3c2cc1OC`, the IC50 in assay [1] was > 20 µM (inactive). The inhibition in assay [2] was found to be 0.811%.

As for `Cc1ccc(NC(=O)CSc2nnnn2-c2ccc3c(c2)OCO3)cc1C`, the IC50 in assay [1] is > 20 µM (inactive). Also, the inhibition in assay [2] was found to be 0.243%.

Take `Nc1ccccc1Nc1cc(-c2ccccc2)[nH]n1`: in assay [1], the IC50 is 2.78 µM. Also, the inhibition in assay [2] was found to be 90.9%.

On to `Cn1nnnc1SCc1ccc(C(=O)Nc2nccs2)cc1`, for which, in assay [1], the IC50 is 16.9 µM. The inhibition in assay [2] worked out at 76.4%.

In the case of `CCN1CCN(Cc2ccc(NC(=O)c3ccc(C)c(NC(=O)c4csc(-c5ccncc5)n4)c3)cc2C(F)(F)F)CC1`, in assay [1], the half-inhibitory concentration (IC50) is 5.9 µM. Moreover, the inhibition in assay [2] came to 90.1%.

Regarding `Cc1ccc(-c2nc(Nc3ccccc3)n[nH]2)cc1`, the IC50 in assay [1] was > 20 µM (inactive). Further, the inhibition in assay [2] turned out to be 0.11%.

In the case of `OCCCNc1nccc(-c2cc(Nc3cccc(Cl)c3)ncn2)n1`, the IC50 in assay [1] is 10.7 µM. Moreover, the inhibition in assay [2] was 82.7%.

Consider `COc1cc(/C=N/Nc2ccc(C(F)(F)F)cn2)ccc1O`, for which the IC50 in assay [1] was 16.7 µM. Moreover, the inhibition in assay [2] amounted to 82.3%.

For the molecule `C[C@@H]1C[C@@H]2O[C@H]2/C=C\C=C\C(=O)Cc2c(Cl)c(O)cc(O)c2C(=O)O1`, the IC50 in assay [1] was 0.372 µM. Moreover, the inhibition in assay [2] is 120%.

With `CN(C)S(=O)(=O)c1ccc(Cl)c(NC(=O)CSc2nnnn2-c2ccc(O)cc2)c1`, in assay [1], the IC50 is 17.7 µM. In addition, the inhibition in assay [2] was 78.6%.

As for `CCc1cccc2c(C(=O)COC(=O)c3ccc(O)cc3)c[nH]c12`, the IC50 in assay [1] was > 20 µM (inactive). For the same molecule, the inhibition in assay [2] was 1.41%.

Turning to `O=C(CSc1nnnn1-c1ccc(O)cc1)Nc1cccc(S(=O)(=O)N2CCCC2)c1`, in assay [1], the IC50 is 5.89 µM. The inhibition in assay [2] amounted to 86.9%.

As for `O=C(C1=NNCC1c1ccccc1)C1CO1` (stereo not drawn), the IC50 in assay [1] is 15.8 µM. Further, in assay [2], the inhibition stood at 87.3%.

Take `c1ccc2c3c([nH]c2c1)-c1[nH]ncc1CC3`: in assay [1], the IC50 is 0.194 µM. The inhibition in assay [2] amounted to 78.5%.

In the case of `O=C(CSc1nnnn1-c1ccc2c(c1)OCCO2)Nc1nc2c(s1)CCCC2`, the IC50 in assay [1] was > 20 µM (inactive). Further, the inhibition in assay [2] was 0.775%.

In the case of `COc1ccc(N=Cc2c(O)[nH]c3ccccc23)cc1OC`, the IC50 in assay [1] was 6.83 µM. In assay [2], the inhibition was 81.8%.

On to `O=C(C1=NNCC1c1ccc(Cl)cc1)C1CO1` (stereo not drawn), for which, in assay [1], the IC50 is 3.69 µM. In assay [2], the inhibition is 103%.

`Cc1cn(-c2cc(C(=O)Nc3ccc(C)c(NC(=O)C(=O)c4c[nH]c5ccccc45)c3)cc(C(F)(F)F)c2)cn1`: in assay [1], the IC50 was > 20 µM (inactive). Further, in assay [2], the inhibition was 1.07%.

As for `Nc1nnnn1/N=C/C(Br)=C/c1ccccc1`, the IC50 in assay [1] is > 20 µM (inactive). In addition, the inhibition in assay [2] was found to be 0.0265%.

Take `CCN1C(=O)/C(=C/c2ccc(C)s2)NC1=S`: in assay [1], the IC50 was 2.05 µM. Besides, the inhibition in assay [2] was 88.7%.

On to `O=C(Nc1nccs1)c1ccc(S(=O)(=O)NCc2cccs2)cc1`, for which the IC50 in assay [1] is > 20 µM (inactive). In addition, the inhibition in assay [2] came out at 2.91%.

Take `Cc1[nH]c2ccccc2c1/C=N/Nc1ccccn1`: the IC50 in assay [1] was 15 µM. Besides, in assay [2], the inhibition is 92.7%.

`C[C@H]1C[C@@H](C)C(=O)[C@@H]([C@H](O)CC2CC(=O)NC(=O)C2)C1`: the IC50 in assay [1] is 0.986 µM. Also, in assay [2], the inhibition turned out to be 112%.

Turning to `COc1ccc(/C=N/Nc2nc3ccccc3s2)cc1O`, the IC50 in assay [1] was 17.3 µM. In assay [2], the inhibition was found to be 72.2%.

As for `O=C(CCl)Nc1cc(SCC(O)CO)cc([N+](=O)[O-])c1` (stereo not drawn), the IC50 in assay [1] is 14.4 µM. The inhibition in assay [2] was 94.4%.

With `Cc1ccc(C2CC(=O)NC(SCC(=O)Nc3nccs3)=C2C#N)cc1` (stereo not drawn), the 50% inhibitory concentration (IC50) in assay [1] was 0.251 µM. Further, in assay [2], the inhibition amounted to 80.8%.

As to `COc1cc(/C=N/Nc2ccccn2)ccc1O`, the IC50 in assay [1] is 14.9 µM. The inhibition in assay [2] is 91.1%.

In the case of `Cc1cc(N/N=C/c2ccncc2)nc2ccccc12`, in assay [1], the IC50 is 18.5 µM. In addition, the inhibition in assay [2] is 81.6%.

By IC50 is commonly meant the concentration that inhibits the measured activity by half. For orientation: inhibition means the change of the read-out against control, counted positive when it falls.
